# Source: PMC9585585, “Discovery of Small-Molecule Allosteric Inhibitors of PfATC as Antimalarials” (Journal of the American Chemical Society, 2022)
# What was measured:
# PfATC = PfATC (Plasmodium falciparum, UniProt A0A5K1K910); experiment: biochemical; conditions: in vitro activity assay, PfATC 50 nM, 2 mM CP, 1 mM aspartate; read-out: PfATC IC50
# Experimental: Following washing with Lysis buffer
# Excess imidazole was removed and the His-tag was cleaved
# 400Then, the sample was loaded onto a 5 ml HiTrap SP HP column (GE Healthcare, USA) and
# 410PfATC activity assay. Enzymatic reactions were performed in a total volume of 150 µL in 50 mM
# Small-molecule dose-response curves were
# The reactions were initiated by adding CP and quenched after 10 min with
# After plates were sealed with transparent sealing
# (§1) 420tape to prevent evaporation and incubated overnight in the dark place at room temperature. After
# Analyses were performed using
# The enzymatic assay was performed as described herein above for
# Briefly, the reaction was carried out at room
# The reaction was initiated by
# Then the plate was covered by sealing
# (§2) 430tape and kept in dark place at room temperature and then heated to 95 °C for 15min in dark and kept
# HsATC = target: T1, HsATC (Homo sapiens, UniProt P27708); experiment: HsATC activity assay; assay type: biochemical; conditions: in vitro activity assay, 10 mM L-aspartate, 5 mM carbamoyl phosphate; read-out: HsATC IC50
# T1 construct: ATCase domain of CAD; made in house; host or cells: E. coli BL21 star
# T1 sequence (P27708 1918-2225 limits assumed): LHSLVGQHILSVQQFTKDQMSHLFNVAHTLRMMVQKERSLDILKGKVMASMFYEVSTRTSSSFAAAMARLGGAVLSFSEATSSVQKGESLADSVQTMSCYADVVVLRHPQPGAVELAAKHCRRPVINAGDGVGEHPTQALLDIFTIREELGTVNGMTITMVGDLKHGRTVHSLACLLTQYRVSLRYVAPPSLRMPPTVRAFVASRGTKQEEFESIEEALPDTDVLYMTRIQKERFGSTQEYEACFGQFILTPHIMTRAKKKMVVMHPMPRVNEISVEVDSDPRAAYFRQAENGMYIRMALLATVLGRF
# Experimental: 417100μL of stop mix (two volumes of Antipyrine (26.5 mM 2,3-Dimethyl-1-phenyl-3-pyrazolin-5-
# 418one in 50% (v/v) sulfuric acid) and one volume of 2,3-Butanedione monoxime (80 mM 2,3-
# 419Butanedione monoxime in 5% (v/v) acetic acid). After plates were sealed with transparent sealing
# as §1
# 421incubation, the plates were heated at 95 °C for 15 min in dark place, and kept for 30 min before
# 422measuring at 466 nm suing a Synergy H1 Hybrid Reader (BioTek). Analyses were performed using
# 423Microsoft Excel and Graph Pad Prism.
# 424HsATC activity assay. The enzymatic assay was performed as described herein above for
# 425enzymatic assay of PfATC with minor modifications. Briefly, the reaction was carried out at room
# 426temperature in a total volume of 150 μl of 10 mM L-aspartate and 5 mM carbamoyl phosphate
# 427saturated substrate solution in 50 mM Tris-Acetate buffer pH 8.3. hsATC was pre-incubated with
# 428inhibitor and L-Asp for 10 min at room temperature on a shaker. The reaction was initiated by
# 429adding CP and stopped after 5 min with […] color mix. Then the plate was covered by sealing
# as §2
# 431the plate in the dark for another 30 min before measuring the absorbance at 466 nm suing a Synergy
# 432H1 Hybrid Reader (BioTek). […]
# P. falciparum 3D7 = experiment: Growth-inhibition assay of P. falciparum (SYBR Green I); assay type: cell-based, Plasmodium falciparum; conditions: P. falciparum 3D7, 96 h; read-out: EC50 against blood stage 3D7 cultures
# Experimental: 488Cell culture and growth-inhibition assay of P. falciparum. P. falciparum 3D7 parasites
# 489(Wellcome Trust Dundee) were maintained in continuous culture at 37 °C and an atmosphere
# 490consisting of 90% N 2, 5% O2, and 5% CO2 as described previously 30 with modifications.31
# 491Parasites were maintained in 25 mM 4-(2-hydroxyethyl)-1-piperazineethanesulfonic acid (HEPES)
# 492and 11.9 mM sodium bicarbonate buffered RPMI 1640 medium supplemented with D-glucose
# 493(11 mM), hypoxanthine, AlbuMAX-I (0.5% w/v), and 10 µg/mL gentamicin. 0+ blood was
# 494provided by “Hospital Novo Atibaia” (Brazil) in agreement with the ethics committee at ICB-USP.
# 495Compounds were tested for their inhibitory effect against P. falciparum 3D7 conducting SYBR
# 496Green I (Invitrogen) drug assays as reported. 32, 33 Briefly, two-fold serial dilutions of compounds
# 497were prepared in 96-well plates starting from 100 and 20 µM in technical triplicate and incubated
# 498for 96 h under normal growth conditions using an initial parasitemia of 0.5% and a hematocrit of
# 4992% in a volume of 100 µL per well. Parasite proliferation was measured by quantifying DNA via
# 500SYBR Green I emitted fluorescence in the wells after addition of 100 µL lysis buffer supplemented
# 501with SYBR Green I (0.02% v/v) and incubation for 1 h at room temperature in the dark.
# 502Fluorescence was quantified using a CLARIOstar plate reader (BMG Labtech, Germany) at
# 503excitation and emission wavelength bands of 485 (± 9) and 530 (± 12) nm, respectively. Focal and
# 504gain adjustment was performed using the negative controls (highest expected fluorescence signal).
# 505Data was acquired via the CLARIOstar (V5.20) and MARS software, manually normalized, and
# 506plotted using the nonlinear regression curve fit implemented in GraphPad Prism as described below
# 507in more detail. Non-treated parasites, highest solvent concentration on parasites, and highest drug
# 508concentration in medium were used as controls for maximal growth, solvent control, and native
# 509drug fluorescence, respectively.
# 511Nonlinear regression fit and analysis of dose-response drug assays. Nonlinear regression as
# 512implemented in GraphPad Prism 8.4.3 (log(inhibitor) vs. response – Variable slope (four
# 513parameters)) was used to fit the measured data to interpolate the IC 50 value from the curve. No
# 514specific model was applied. Data was pre-processed by min-max-scaling according to the
# 517where y is the fluorescence signal in each well, y minimum the background fluorescence, and ymaximum
# 518the highest measured fluorescence signal in the untreated wells. Drug concentrations (in µM) were
# 519transformed to the log(10)of the values. Means of each independent experiment were plotted as
# 520individual values, and the SD of the mean from the means shown as error bars. The test for
# 521homoscedasticity was performed to confirm if no weighting of values was appropriate.
# malarial parasite = tested on: malarial parasite; set-up: method as in PMID 32129597; conditions: cited from earlier work
# Chain of PfATC (A0A5K1K910 entry or part of it): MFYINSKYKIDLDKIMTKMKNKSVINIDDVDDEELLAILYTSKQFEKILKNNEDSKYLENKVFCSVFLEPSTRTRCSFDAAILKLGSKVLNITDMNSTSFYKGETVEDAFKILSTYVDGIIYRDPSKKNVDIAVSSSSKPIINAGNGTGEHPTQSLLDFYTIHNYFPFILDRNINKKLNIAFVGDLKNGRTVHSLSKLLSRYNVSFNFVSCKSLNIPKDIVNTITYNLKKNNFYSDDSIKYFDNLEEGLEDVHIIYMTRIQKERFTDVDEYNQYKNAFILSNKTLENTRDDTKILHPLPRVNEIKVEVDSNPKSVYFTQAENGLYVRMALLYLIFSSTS
Structure (SMILES),IC50 (PfATC) [nM],IC50 (HsATC) [nM],EC50 (P. falciparum 3D7) [nM],inhibitory effects in ex vivo experiments (malarial parasite)
CC(C)(C)OC(=O)Nc1sc(-c2ccccc2)cc1C(=O)NCCc1ccc(Br)cc1 [BDA-22],473,573,2890,–
CC(C)(C)OC(=O)Nc1sc(-c2ccccc2)cc1C(=O)NCC(O)c1ccccc1 (stereo not shown) [BDA-16],6080,870,1960,–
CC(C)CCNc1sc(-c2ccccc2)cc1C(=O)NCCc1ccc(O)cc1 [BDA-19],4070,678,2330,–
"O=C(O)C[C@H](NC(=O)CP(=O)(O)O)C(=O)O [PALA, N-(phosphonoacetyl)-L-aspartate]",–,–,–,no inhibitory effects
CC(C)(C)OC(=O)Nc1sc(-c2ccccc2)cc1C(=O)NCc1ccccc1 [BDA-34],849,212,–,–
CC(C)(C)OC(=O)Nc1oc(-c2ccc(Cl)cc2)cc1C(=O)NCCc1ccc(O)cc1 [BDA-44],6110,830,–,–

# Continued by falling IC50 (PfATC), values first:
IC50 (PfATC) [nM],IC50 (HsATC) [nM],EC50 (P. falciparum 3D7) [nM],Structure (SMILES),inhibitory effects in ex vivo experiments (malarial parasite)
1330,259,1850,COc1ccccc1CCNC(=O)c1cc(-c2ccccc2)sc1NC(=O)OC(C)(C)C [BDA-18],–
1000,1630,–,CC(C)(C)OC(=O)Nc1sc(-c2ccccc2)cc1C(=O)O [BDA-03],–
554,620,2420,CC(C)(C)OC(=O)Nc1sc(-c2ccccc2)cc1C(=O)NCCc1ccc(C(F)(F)F)cc1 [BDA-21],–
